# Experiments:
# Assay type in all cases: cell-based
# [1] = molecular target: T1, M4 muscarinic receptor (Homo sapiens, UniProt P08173); test: Functional mobilization of intracellular calcium (FLIPR), M4-CHO cells; conditions: for Emax / M4 Efficacy: 100% efficacy = maximum response obtained with the Carbachol control; for M4 Activity: M4-CHO cells, calcium mobilization (FLIPR)
# T1 construct: expressed in transfected cells; host or cells: CHO (M4-CHO)
# T1 sequence (P08173 1-479): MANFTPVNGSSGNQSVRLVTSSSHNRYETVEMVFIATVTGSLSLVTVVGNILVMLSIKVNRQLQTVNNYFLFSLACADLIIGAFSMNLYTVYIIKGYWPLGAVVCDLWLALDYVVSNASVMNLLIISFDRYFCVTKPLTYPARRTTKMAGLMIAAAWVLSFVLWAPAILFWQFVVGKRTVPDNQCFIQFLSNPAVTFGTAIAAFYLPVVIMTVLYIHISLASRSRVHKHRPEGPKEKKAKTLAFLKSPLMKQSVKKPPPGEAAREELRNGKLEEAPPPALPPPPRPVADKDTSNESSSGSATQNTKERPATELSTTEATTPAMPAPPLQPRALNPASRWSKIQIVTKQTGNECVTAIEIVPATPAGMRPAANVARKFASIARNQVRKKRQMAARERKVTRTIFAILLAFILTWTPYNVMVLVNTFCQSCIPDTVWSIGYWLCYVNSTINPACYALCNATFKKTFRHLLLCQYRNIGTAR
# In short: (§1)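 FLIPR fluorescence (ex 488, em 540 nm) recorded 60 sec after compound addition to dye-loaded CHO cells. Agonist mode: compound alone. Antagonist mode: 15 min compound pre-incubation, then carbachol at EC80, or co-application. Efficacy expressed as % of maximal carbachol response.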
# [2] = molecular target: T2, M3 muscarinic receptor (Homo sapiens, UniProt P20309); test: Functional mobilization of intracellular calcium (FLIPR), M3-CHO cells; conditions: for Emax / M3 Efficacy: 100% efficacy = maximum response obtained with the Carbachol control; for M3 Activity: M3-CHO cells, calcium mobilization (FLIPR)
# T2 construct: expressed in transfected cells; host or cells: CHO (M3-CHO)
# T2 sequence (P20309 whole entry): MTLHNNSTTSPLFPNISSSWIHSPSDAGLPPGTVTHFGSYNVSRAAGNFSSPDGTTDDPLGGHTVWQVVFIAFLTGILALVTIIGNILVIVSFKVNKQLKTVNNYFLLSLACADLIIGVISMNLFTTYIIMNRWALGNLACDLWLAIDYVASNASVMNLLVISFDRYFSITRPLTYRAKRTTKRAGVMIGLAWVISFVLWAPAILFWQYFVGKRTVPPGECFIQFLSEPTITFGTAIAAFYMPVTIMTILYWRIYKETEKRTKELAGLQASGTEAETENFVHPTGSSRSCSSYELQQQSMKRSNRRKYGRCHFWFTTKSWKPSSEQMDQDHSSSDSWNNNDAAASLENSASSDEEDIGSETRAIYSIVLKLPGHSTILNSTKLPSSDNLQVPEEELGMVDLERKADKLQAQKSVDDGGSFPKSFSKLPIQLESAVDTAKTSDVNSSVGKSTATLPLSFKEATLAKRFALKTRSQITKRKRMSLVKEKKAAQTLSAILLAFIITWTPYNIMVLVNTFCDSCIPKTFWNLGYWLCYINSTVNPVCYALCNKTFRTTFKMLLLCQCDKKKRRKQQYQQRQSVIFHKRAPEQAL
# In short: as §1
# [3] = molecular target: T3, M1 muscarinic receptor (Homo sapiens, UniProt P11229); test: Functional mobilization of intracellular calcium (FLIPR), M1-CHO cells; conditions: for Emax / M1 Efficacy: 100% efficacy = maximum response obtained with the Carbachol control; for M1 Activity: M1-CHO cells, calcium mobilization (FLIPR)
# T3 construct: expressed in transfected cells; host or cells: CHO (M1-CHO)
# T3 sequence (P11229 1-460): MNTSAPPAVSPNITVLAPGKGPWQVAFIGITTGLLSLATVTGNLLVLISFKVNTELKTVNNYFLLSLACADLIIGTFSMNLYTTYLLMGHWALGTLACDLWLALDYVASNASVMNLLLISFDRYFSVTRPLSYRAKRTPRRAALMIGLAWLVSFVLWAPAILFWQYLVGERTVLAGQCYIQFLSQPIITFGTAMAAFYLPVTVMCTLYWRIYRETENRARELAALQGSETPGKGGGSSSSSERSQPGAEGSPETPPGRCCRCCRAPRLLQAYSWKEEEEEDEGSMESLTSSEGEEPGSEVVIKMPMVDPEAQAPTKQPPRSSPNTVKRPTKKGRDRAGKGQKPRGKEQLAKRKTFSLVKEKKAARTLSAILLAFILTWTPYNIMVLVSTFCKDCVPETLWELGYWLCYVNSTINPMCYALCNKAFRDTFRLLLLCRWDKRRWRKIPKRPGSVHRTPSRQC
# In short: as §1
# [4] = molecular target: T4, M2 muscarinic receptor (Homo sapiens, UniProt P08172); test: Functional mobilization of intracellular calcium (FLIPR), M2-CHO cells; conditions: for Emax / M2 Efficacy: 100% efficacy = maximum response obtained with the Carbachol control; for M2 Activity: M2-CHO cells, calcium mobilization (FLIPR)
# T4 construct: expressed in transfected cells; host or cells: CHO (M2-CHO)
# T4 sequence (P08172 1-466): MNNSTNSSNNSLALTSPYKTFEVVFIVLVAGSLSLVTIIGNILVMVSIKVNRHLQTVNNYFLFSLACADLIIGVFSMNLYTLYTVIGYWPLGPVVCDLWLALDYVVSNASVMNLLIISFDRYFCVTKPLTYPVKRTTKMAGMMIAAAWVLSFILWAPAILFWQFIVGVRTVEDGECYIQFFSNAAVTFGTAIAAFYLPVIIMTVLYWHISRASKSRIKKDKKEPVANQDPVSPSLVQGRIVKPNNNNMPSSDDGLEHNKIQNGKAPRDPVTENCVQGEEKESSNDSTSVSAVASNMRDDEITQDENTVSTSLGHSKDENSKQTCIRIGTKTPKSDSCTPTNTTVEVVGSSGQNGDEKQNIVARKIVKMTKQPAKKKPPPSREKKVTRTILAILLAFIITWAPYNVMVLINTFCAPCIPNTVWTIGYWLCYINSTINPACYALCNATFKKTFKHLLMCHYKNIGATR
# In short: as §1
Compound,Emax [1],M4 Activity [1],Emax [2],M3 Activity [2],Emax [3],M1 Activity [3],Emax [4],M2 Activity [4],M4 Efficacy [1],M3 Efficacy [2],M1 Efficacy [3],M2 Efficacy [4]
CCOC(=O)N1C2CCC1CC(N1CCC(F)(c3cc(F)ccc3OC)CC1)C2 (stereo not drawn) [Compound 334],25 to 100%,+++ (activity was measured to be less than 1.0 μM),< 25%,+ (activity was measured to be greater than 5.0 μM),25 to 100%,+++ (activity was measured to be less than 1.0 μM),< 25%,+ (activity was measured to be greater than 5.0 μM),,,,
COc1ccc(Cl)cc1C1CCN(C2CCC(=NOc3ccccc3)CC2)CC1 (stereo not drawn) [Compound 336],,+++ (activity was measured to be less than 1.0 μM),,+ (activity was measured to be greater than 5.0 μM),,++ (activity was measured to be from 1.0 μM to 5.0 μM),,+ (activity was measured to be greater than 5.0 μM),++ (efficacy was calculated to be from 100% to 25%),+ (efficacy was calculated to be less than 25%),++ (efficacy was calculated to be from 100% to 25%),+ (efficacy was calculated to be less than 25%)
CCOC(=O)N1CCC(CN2CCC(c3cccc(C(F)(F)F)c3C)CC2)CC1 [Compound 337],25 to 100%,+++ (activity was measured to be less than 1.0 μM),< 25%,+ (activity was measured to be greater than 5.0 μM),25 to 100%,++ (activity was measured to be from 1.0 μM to 5.0 μM),< 25%,+ (activity was measured to be greater than 5.0 μM),,,,
COc1ccccc1C1CCN(C2CC(c3ccccc3)C(c3ccccc3)C2)CC1 (stereo not drawn) [Compound 339],25 to 100%,+ (activity was measured to be greater than 5.0 μM),< 25%,+ (activity was measured to be greater than 5.0 μM),25 to 100%,+ (activity was measured to be greater than 5.0 μM),< 25%,+ (activity was measured to be greater than 5.0 μM),,,,
COc1ccc(F)cc1C1(O)CCN(C[C@H]2C[C@H]3C=C[C@H]2C3)CC1 [Compound 340],25 to 100%,+++ (activity was measured to be less than 1.0 μM),< 25%,+ (activity was measured to be greater than 5.0 μM),25 to 100%,+ (activity was measured to be greater than 5.0 μM),25 to 100%,+ (activity was measured to be greater than 5.0 μM),,,,
Cc1ccc(C)c(C2CCN(C3CC4CCC3C4)CC2)c1 (stereo not drawn) [Compound 341],25 to 100%,++ (activity was measured to be from 1.0 μM to 5.0 μM),,+ (activity was measured to be greater than 5.0 μM),< 25%,+ (activity was measured to be greater than 5.0 μM),< 25%,+ (activity was measured to be greater than 5.0 μM),,,,
COc1ccc(-c2ccc(C#N)cc2)cc1C1CCN(C2CCCCC2)CC1 [Compound 342],25 to 100%,++ (activity was measured to be from 1.0 μM to 5.0 μM),< 25%,+ (activity was measured to be greater than 5.0 μM),25 to 100%,+ (activity was measured to be greater than 5.0 μM),< 25%,+ (activity was measured to be greater than 5.0 μM),,,,
FC(F)(F)c1ccccc1C1CCN(C2CC3CCC(C3)C2)CC1 (stereo not drawn) [Compound 343],25 to 100%,+++ (activity was measured to be less than 1.0 μM),< 25%,+ (activity was measured to be greater than 5.0 μM),25 to 100%,+ (activity was measured to be greater than 5.0 μM),< 25%,+ (activity was measured to be greater than 5.0 μM),,,,
CCOC(=O)N1CCC(CN2CCC(c3cc(-c4ccc(C#N)cc4)ccc3OC)CC2)CC1 [Compound 345],25 to 100%,+++ (activity was measured to be less than 1.0 μM),< 25%,+ (activity was measured to be greater than 5.0 μM),25 to 100%,++ (activity was measured to be from 1.0 μM to 5.0 μM),< 25%,+ (activity was measured to be greater than 5.0 μM),,,,
COc1ccccc1C1CCN(CC2CC2)CC1 [Compound 346],< 25%,+ (activity was measured to be greater than 5.0 μM),< 25%,+ (activity was measured to be greater than 5.0 μM),< 25%,+ (activity was measured to be greater than 5.0 μM),< 25%,+ (activity was measured to be greater than 5.0 μM),,,,
COc1ccc(-c2ccccc2C(N)=O)cc1C1CCN([C@H]2C[C@H]3CC[C@H]2C3)CC1 [Compound 347],25 to 100%,++ (activity was measured to be from 1.0 μM to 5.0 μM),< 25%,+ (activity was measured to be greater than 5.0 μM),< 25%,+ (activity was measured to be greater than 5.0 μM),< 25%,+ (activity was measured to be greater than 5.0 μM),,,,
COc1cc(F)ccc1C1CCN(C2CCOCC2)CC1 [Compound 349],25 to 100%,+++ (activity was measured to be less than 1.0 μM),< 25%,+ (activity was measured to be greater than 5.0 μM),25 to 100%,+ (activity was measured to be greater than 5.0 μM),< 25%,+ (activity was measured to be greater than 5.0 μM),,,,
C=CCON=C1CCC(N2CCC(c3cc(Cl)ccc3OC)CC2)CC1 (stereo not drawn) [Compound 350],,+++ (activity was measured to be less than 1.0 μM),,+ (activity was measured to be greater than 5.0 μM),,+++ (activity was measured to be less than 1.0 μM),,++ (activity was measured to be from 1.0 μM to 5.0 μM),++ (efficacy was calculated to be from 100% to 25%),+ (efficacy was calculated to be less than 25%),++ (efficacy was calculated to be from 100% to 25%),+ (efficacy was calculated to be less than 25%)
COc1ccc(-c2ccc(C#N)cc2)cc1C1CCN(C2CCOCC2)CC1 [Compound 352],25 to 100%,+ (activity was measured to be greater than 5.0 μM),< 25%,+ (activity was measured to be greater than 5.0 μM),25 to 100%,+ (activity was measured to be greater than 5.0 μM),< 25%,+ (activity was measured to be greater than 5.0 μM),,,,

# Reference: patent publication US7880007B2, “Bicyclic substituted phenyl piperidine modulators of muscarinic receptors” (Vertex Pharmaceuticals Incorporated, priority 2004, dated 2011)
